Results taken from ChEMBL document CHEMBL3734695, “Cytotoxic potential of dispirooxindolo/acenaphthoquino andrographolide derivatives against MCF-7 cell line” (Medchemcomm, 2015).
Calls of active or inactive are those of the source. The rule behind the calls is not given here.

How the values were obtained:
MCF7 [1] = test: Induction of apoptosis in human MCF7 cells assessed as depolarized mitochondrial membrane at IC50 after 24 hrs by JC-1 dye based FACS analysis (reference value: 10%); format: functional
MCF7 [2] = test: Induction of apoptosis in human MCF7 cells assessed as polarized mitochondrial membrane at IC50 after 24 hrs by JC-1 dye based FACS analysis (reference value: 90%); format: functional
MCF7 [3] = test: Induction of apoptosis in human MCF7 cells assessed as increase in cleaved caspase-9 level at IC50 after 48 hrs by western blot analysis; format: functional, cell-based
MCF7 [4] = test: Cytotoxicity against human MCF7 cells assessed as growth inhibition after 72 hrs by MTT assay; format: functional, cell-based; conditions: MCF7, 72 h
MCF7 [5] = test: Induction of apoptosis in human MCF7 cells assessed as progressive cell detachment at IC50 after 24 hrs by inverted phase contrast microscopic analysis; format: functional, cell-based
MCF7 [6] = test: Induction of apoptosis in human MCF7 cells assessed as rounded cells at IC50 after 24 hrs by inverted phase contrast microscopic analysis; format: functional, cell-based
MCF7 [7] = test: Induction of apoptosis in human MCF7 cells assessed as dead cells at IC50 after 24 hrs by annexin V-FITC/propidium iodide staining based flow cytometric analysis (reference value: 0.2%); format: functional
MCF7 [8] = test: Induction of apoptosis in human MCF7 cells assessed as late apoptotic cells at IC50 after 24 hrs by annexin V-FITC/propidium iodide staining based flow cytometric analysis (reference value: 0.0%); format: functional
MCF7 [9] = test: Induction of apoptosis in human MCF7 cells assessed as viable cells at IC50 after 24 hrs by annexin V-FITC/propidium iodide staining based flow cytometric analysis (reference value: 99.8%); format: functional
MCF7 [10] = test: Induction of apoptosis in human MCF7 cells assessed as early apoptotic cells at IC50 after 24 hrs by annexin V-FITC/propidium iodide staining based flow cytometric analysis (reference value: 0.1%); format: functional
MCF7 [11] = test: Induction of apoptosis in human MCF7 cells assessed as dead cells at IC50 after 48 hrs by annexin V-FITC/propidium iodide staining based flow cytometric analysis (reference value: 0.2%); format: functional
MCF7 [12] = test: Induction of apoptosis in human MCF7 cells assessed as late apoptotic cells at IC50 after 48 hrs by annexin V-FITC/propidium iodide staining based flow cytometric analysis (reference value: 0.0%); format: functional
MCF7 [13] = test: Induction of apoptosis in human MCF7 cells assessed as viable cells at IC50 after 48 hrs by annexin V-FITC/propidium iodide staining based flow cytometric analysis (reference value: 99.8%); format: functional
MCF7 [14] = test: Induction of apoptosis in human MCF7 cells assessed as early apoptotic cells at IC50 after 48 hrs by annexin V-FITC/propidium iodide staining based flow cytometric analysis (reference value: 0.1%); format: functional
MCF7 [15] = test: Induction of apoptosis in human MCF7 cells assessed as depolarized mitochondrial membrane at IC50 after 48 hrs by JC-1 dye based FACS analysis (reference value: 10%); format: functional
MCF7 [16] = test: Induction of apoptosis in human MCF7 cells assessed as polarized mitochondrial membrane at IC50 after 48 hrs by JC-1 dye based FACS analysis (reference value: 90%); format: functional
MCF7 [17] = test: Induction of ROS generation in human MCF7 cells at IC50 after 24 hrs by CM-H2DCFDA staining based flow cytometric analysis (reference value: 12.6%); format: functional
MCF7 [18] = test: Induction of apoptosis in human MCF7 cells assessed as increase in cleaved caspase-7 level at IC50 after 48 hrs by western blot analysis; format: functional, cell-based
MCF7 [19] = test: Induction of apoptosis in human MCF7 cells assessed as increase in cleaved PARP-1 level at IC50 after 48 hrs by western blot analysis; format: functional, cell-based
MCF7 [20] = test: Cell cycle arrest in human MCF7 cells assessed as accumulation at G0/G1 phase at IC50 after 24 hrs by propidium iodide staining based flow cytometric analysis (reference value: 59.5%); format: functional
MCF7 [21] = test: Cell cycle arrest in human MCF7 cells assessed as accumulation at G2/M phase at IC50 after 24 hrs by propidium iodide staining based flow cytometric analysis (reference value: 24.2%); format: functional
MCF7 [22] = test: Cell cycle arrest in human MCF7 cells assessed as accumulation at S phase at IC50 after 24 hrs by propidium iodide staining based flow cytometric analysis (reference value: 16.3%); format: functional
MCF7 [23] = test: Cell cycle arrest in human MCF7 cells assessed as accumulation at G0/G1 phase at IC50 after 48 hrs by propidium iodide staining based flow cytometric analysis (reference value: 59.5%); format: functional
MCF7 [24] = test: Cell cycle arrest in human MCF7 cells assessed as accumulation at G2/M phase at IC50 after 48 hrs by propidium iodide staining based flow cytometric analysis (reference value: 24.2%); format: functional
MCF7 [25] = test: Cell cycle arrest in human MCF7 cells assessed as accumulation at S phase at IC50 after 48 hrs by propidium iodide staining based flow cytometric analysis (reference value: 16.3%); format: functional
MCF7 [26] = test: Induction of apoptosis in human MCF7 cells assessed as ratio of depolarized to polarized mitochondrial membrane at IC50 by JC-1 dye based FACS analysis; format: functional, cell-based; conditions: TDE = time-dependent effect

Row | Structure (SMILES) | Activity (MCF7 [1]) [%] | Activity (MCF7 [2]) [%] | Activity (MCF7 [3]) | IC50 (MCF7 [4]) [µM] | Activity (MCF7 [5]) | Activity (MCF7 [6]) | Activity (MCF7 [7]) [%] | Activity (MCF7 [8]) [%] | Activity (MCF7 [9]) [%] | Activity (MCF7 [10]) [%] | Activity (MCF7 [11]) [%] | Activity (MCF7 [12]) [%] | Activity (MCF7 [13]) [%] | Activity (MCF7 [14]) [%] | Activity (MCF7 [15]) [%] | Activity (MCF7 [16]) [%] | Activity (MCF7 [17]) [%] | Activity (MCF7 [18]) | Activity (MCF7 [19]) | Activity (MCF7 [20]) [%] | other results
1 | N#CC(C#N)=NNc1cccc(Cl)c1 [CARBONYL CYANIDE M-CHLOROPHENYLHYDRAZONE] | 100 | 0 |  |  |  |  |  |  |  |  |  |  |  |  |  |  |  |  |  |  | 
2 | C=C1CC[C@@H]2[C@](C)(CO)[C@H](O)CC[C@@]2(C)[C@@H]1CC1CN(Cc2ccccc2)[C@@]2(C(=O)Nc3ccc(Br)cc32)[C@]12C(=O)OC[C@H]2O (some centres not stated) | 46.1 | 54.1 | Active | 12.8 | Active | Active | 0.9 | 2 | 61.4 | 35.7 | 0 | 4.4 | 1.7 | 93.9 | 93.1 | 6.4 | 98.1 | Active | Active | 40.3 | Activity (MCF7 [21]): 31.1%; Activity (MCF7 [22]): 28.5%; Activity (MCF7 [23]): 34.2%; Activity (MCF7 [24]): 22%; Activity (MCF7 [25]): 43%; Activity (MCF7 [26]): tde
3 | C=C1CC[C@@H]2[C@](C)(CO)[C@H](O)CC[C@@]2(C)[C@@H]1CC1CN(Cc2ccccc2)[C@@]2(C(=O)c3cccc4cccc2c34)[C@]12C(=O)OC[C@H]2O (some centres not stated) | 83 | 17 | Active | 8.9 | Active | Active | 0.3 | 0.8 | 56.5 | 42.4 | 0 | 4.6 | 0.4 | 95 | 96.4 | 3.6 | 97.7 | Active | Active | 46.3 | Activity (MCF7 [21]): 29.8%; Activity (MCF7 [22]): 23.9%; Activity (MCF7 [23]): 32.3%; Activity (MCF7 [24]): 27.5%; Activity (MCF7 [25]): 38.6%; Activity (MCF7 [26]): tde
4 | C=C1CC[C@@H]2[C@](C)(CO)[C@H](O)CC[C@@]2(C)[C@@H]1CC1CN(Cc2ccccc2)[C@@]2(C(=O)Nc3ccc(Cl)cc32)[C@]12C(=O)OC[C@H]2O (some centres not stated) | 62.3 | 37.7 | Active | 12.7 | Active | Active | 0.9 | 0.7 | 71.5 | 28.5 | 0.2 | 7.1 | 7.9 | 84.8 | 89.8 | 10.2 | 99.4 | Active | Active | 42.7 | Activity (MCF7 [21]): 29.5%; Activity (MCF7 [22]): 27.8%; Activity (MCF7 [23]): 42.9%; Activity (MCF7 [24]): 20.2%; Activity (MCF7 [25]): 35.8%; Activity (MCF7 [26]): tde
5 | C=C1CC[C@@H]2[C@](C)(CO)[C@H](O)CC[C@@]2(C)[C@@H]1CC1CN(Cc2ccccc2)[C@@]2(C(=O)Nc3c(F)cccc32)[C@]12C(=O)OC[C@H]2O (some centres not stated) | 50 | 50.1 | Active | 13.7 | Active | Active | 0.6 | 0.4 | 76.3 | 22.7 | 1.4 | 4.1 | 36.7 | 57.8 | 97.5 | 2.5 | 96.2 | Active | Active | 46.6 | Activity (MCF7 [21]): 22.2%; Activity (MCF7 [22]): 31.1%; Activity (MCF7 [23]): 33.3%; Activity (MCF7 [24]): 17.4%; Activity (MCF7 [25]): 48.1%; Activity (MCF7 [26]): tde
6 | C=C1CC[C@@H]2[C@](C)(CO)[C@H](O)CC[C@@]2(C)[C@@H]1CC1CN(Cc2ccccc2)[C@@]2(C(=O)Nc3ccc(C)cc32)[C@]12C(=O)OC[C@H]2O (some centres not stated) | 79 | 21 | Active | 10.9 | Active | Active | 0.8 | 0.6 | 79.2 | 19.7 | 2.2 | 1.5 | 77.8 | 18.5 | 88.9 | 11.1 | 99.9 | Active | Active | 42.4 | Activity (MCF7 [21]): 29.1%; Activity (MCF7 [22]): 28.5%; Activity (MCF7 [23]): 37.9%; Activity (MCF7 [24]): 19.4%; Activity (MCF7 [25]): 41.7%; Activity (MCF7 [26]): tde
